Source: publication PMC9774446, “Antifungal and Anti-Inflammatory Activities of PS1-2 Peptide against Fluconazole-Resistant Candida albicans” (Antibiotics, 2022)
Values after ≈ are worked out from the molar mass of the structure shown. Like-named read-outs stand apart in the source and are kept apart here. No end group written: not given here.

Experiments:
[1] = test system: C. albicans KCTC 7270; experiment: Drug-resistance assay (MFC over six passages); type: cell-based; conditions: Candida albicans
Experimental: To investigate the induction of drug resistance, C. albicans KCTC 7270 cells were prepared as for antifungal assay described above, at concentrations ranging from 1 to 128 μM. After 24 h incubation, MFCs were determined by the above method, and the surviving cells at half MFCs of each sample were treated with the diluted samples, repeating the process six times.

[2] = test system: RAW 264.7 cells stimulated with C. albicans CCARM 14007; experiment: Anti-inflammatory assay in co-culture of RAW 264.7 and C. albicans; type: cell-based, murine; conditions: fluconazole 128 µM or PS1-2 32 µM, 24 h
Experimental: RAW 264.7 cells were cultured in DMEM supplemented with 10% FBS, 1% penicillin/streptomycin, and GlutaMax at 5% CO2 at 37 °C. The RAW 264.7 cells (2 × 10^5 cells/mL) suspended with RPMI-1640 medium were seeded into 12-well plates and incubated for 24 h. […] After 24 h incubation, cells were washed and harvested in PBS. A total of 1000 µL of blocking solution (5% bovine serum albumin with PBS) was added to each sample, incubated at 25 °C for 30 min, removed by centrifugation at 1000× g, and then incubated with the primary antibody (anti-TLR2, or anti-TNF-α; Abcam, Cambridge, UK, 1:200 dilution) for 1 h. The cells were washed with PBS and incubated with a secondary antibody (fluorescein isothiocyanate-conjugated goat anti-mouse IgG, 1:500 dilution; Santa Cruz Biotechnology) for 1 h. Cells expressing TLR2 were measured using an Attune NxT acoustic focusing cytometer. TNF-α expression was visualized using a confocal laser-scanning microscope (CLSM, A1R HD 25, Nikon, Tokyo, Japan).

[3] = test system: Candida albicans CCARM 14007 (fluconazole-resistant strain); experiment: microbe, parasite or virus in culture; type: cell-based
Excerpt: […] The lowest drug concentration at which no more than one colony was visible on the agar plate, was defined as a minimum fungicidal concentration (MFC).

[4] = test system: C. albicans CCARM 14007-infected mouse lung; type: in vivo, BALB/c mice
Excerpt: Animal study was approved by the Institutional Animal Care and Use Committee (IACUC) in Sunchon National University, South Korea (SCNU IACUC-2019-10). […] The mice anesthetized by inhalation of isoflurane (5%: induction, 2%: maintenance) in pure oxygen were intratracheally instilled with C. albicans cells. One hour after exposure, each peptide sample was intratracheally administered at the indicated dose, and the mice were monitored for signs of morbidity for 6 days. The lungs of mice euthanized by CO2 inhalation were excised and fixed in 4% paraformaldehyde. The fixed tissues were dehydrated using a series of ethanol solutions (50–100%) and embedded in paraffin. Paraffin-embedded tissues were sectioned at a thickness of 5 µm (Leica microtome, Deerfield, IL, USA), and the histopathology of the lung tissues was performed using alcian blue without/with eosin, and hematoxylin and eosin (H&E) staining.
TNF-α and NO production levels in blood collected from mouse hearts were determined using mouse anti-TNF-α microplate ELISA kit (R&D Systems, Minneapolis, MN, USA) and Griess reagent kit (Invitrogen, Carlsbad, CA, USA), respectively, followed by the manufacturer’s instructions.

[5] = cited from earlier work
Experimental: Alterations in the killing kinetic pattern under low salt (SP) and high salt (PBS) conditions can predict the interaction and mode of action of peptides on yeast. Because propidium (PI) dye can stain the live cells only temporarily, it will be released ... || To investigate the proteolytic stability of the peptides, the peptide solutions were pre-treated with trypsin for 40 min and added to C. albicans cells. After 24 h of incubation, cells were spread on agar plates (Figure 4).

[6] = test system: C. albicans CCARM 14007; conditions: CCARM 14007, pH 7.2
Experimental: C. albicans CCARM 14007 cells grown to the mid-log phase at 28 °C were suspended in 10 mM sodium phosphate (pH 7.2) buffer or PBS (pH 7.2) buffer with 10% YPD media at a density of 5 × 10^5 cells/mL. […] The cells were analyzed by fluorescence-activated cell sorting (FACS) system (Attune NxT acoustic focusing cytometer).

With `OC(Cn1cncn1)(Cn1cncn1)c1ccc(F)cc1F` [Fluconazole, fluconazole] the MFC ([1]; KCTC7270, read-out: MFC after six passages, 28 °C, surviving cells at half MFC re-treated each passage) was 2050 µM (≈ 627 µg/mL), the MFC ([1]; KCTC7270, read-out: MFC after six passages, 37 °C, surviving cells at half MFC re-treated each passage) was 4100 µM (≈ 1250 µg/mL) and the MFC ([1]; KCTC7270, read-out: MFC at first passage, 28 °C, drug-sensitive C. albicans KCTC 7270) was 128 µM (≈ 39.2 µg/mL). The MFC ([1]; KCTC7270, read-out: MFC at first passage, 37 °C, drug-sensitive C. albicans KCTC 7270) was 128 µM (≈ 39.2 µg/mL), the “TNF-α expression (in words)” value ([2]; CLSM) was “Overexpression of TNF-α” and the “macrophage morphology (in words)” value ([2]; with C. albicans) was “Lamellipodia extension and spreading of cells”. For the same compound, the MFC ([3]; 28 °C, 6 mM CaCl2 (pH 5.5), 24 h) was >128 µM, the MFC ([3]; 28 °C, 6 mM MgCl2 (pH 5.5), 24 h) was >128 µM and the MFC ([3]; 28 °C, 24 mM KCl (pH 5.5), 24 h) was >128 µM. For the same compound, the MFC ([3]; 28 °C, pH 5.5, 10 mM sodium phosphate buffer containing 10% media, 24 h) was >128 µM, the MFC ([3]; 28 °C, pH 6.0, 10 mM sodium phosphate buffer containing 10% media, 24 h) was >128 µM and the MFC ([3]; 28 °C, pH 7.2, 10 mM sodium phosphate buffer containing 10% media, 24 h) was >128 µM. The MFC ([3]; 37 °C, 6 mM CaCl2 (pH 5.5), 24 h) was >128 µM, the MFC ([3]; 37 °C, 6 mM MgCl2 (pH 5.5), 24 h) was >128 µM and the MFC ([3]; 37 °C, 24 mM KCl (pH 5.5), 24 h) was >128 µM. For the same compound, the MFC ([3]; 37 °C, 150 mM NaCl (pH 5.5), 24 h) was >128 µM, the MFC ([3]; 37 °C, pH 5.5, 10 mM sodium phosphate buffer containing 10% media, 24 h) was >128 µM and the MFC ([3]; Candida albicans, CCARM14007, 24 h, pH 5.5) was > 128 µM. For the same compound, the MFC ([3]; Candida albicans, CCARM14007, 24 h, pH 6) was > 128 µM, the MFC ([3]; Candida albicans, CCARM14007, 24 h, pH 7.2) was > 128 µM and the “inhibition of TNF-α secretion in whole blood serum” value ([4]; C. albicans-infected mice, 2 mg/kg intratracheal 1 h after infection, 6 days, ELISA) was “approximately 65%”. For the same compound, the “NO production in whole blood serum (in words)” value ([4]; C. albicans-infected mice, 2 mg/kg intratracheal 1 h after infection, 6 days, Griess reagent) was “did not inhibit NO production” and the “lung histology of infected mice (in words)” value ([4]; C. albicans-infected mice, 2 mg/kg intratracheal, H&E and alcian blue staining) was “an increase in the release of mucins”.
In the case of KWLKKWLKKWLK-NH2 [PS1-6], the “toxicity / cytotoxicity (in words)” value [5] is listed as “significant toxicity”, the MFC ([3]; CCARM 14007, 24 h, pH 6) is listed as 16 µM and the MFC ([3]; CCARM 14007, 24 h, pH 7.2) is listed as 16 µM.
For KWYKKWYKKWYK-NH2 [PS1-2], the “toxicity / cytotoxicity (in words)” value [5] is listed as “significantly lower than that of PS1-6”, the MFC ([3]; CCARM 14007, 24 h, pH 6) is listed as 32 µM and the MFC ([3]; CCARM 14007, 24 h, pH 7.2) is listed as 32 µM. For the same compound, the “lung histology of non-infected mice (in words)” value ([4]; mouse, in vivo, 2 mg/kg) was “did not induce inflammation” and the “cells killed (PI-positive cells)” value [6] was 87%.
Work on RWYRRWYRRWYR-NH2 [PS1-5] yielded an MFC ([3]; CCARM 14007, 24 h, pH 6) of 16 µM and an MFC ([3]; CCARM 14007, 24 h, pH 7.2) of 32 µM.
